Reference: patent publication US20240109917A1 (ACTELION PHARMACEUTICALS LTD, priority 2020, published 2024)
Blank lines part the entries; values can stand above or below the compound they belong to.

Assays:
[1] = target: Tb-labeled inactive PDGFRβ (Homo sapiens (Human), UniProt P09619); experiment: PDGFRβ LanthaScreen Assay; format: binding; details: read-out: PDGFR Lantha IC50
[2] = target: PDGFRβ (Rattus norvegicus (Rat), UniProt Q05030); experiment: PDGFRβ Cellular Assay (PDGFRb P-Y751 HTRF in A10 cells stimulated with PDGF-BB); format: cell-based; details: read-out: PDGFR Cellular IC50
Outline: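 Rat A10 cells, plated overnight, were treated with compound for 3 hours, then stimulated with PDGF-BB (working stock 100 ng/mL in 10% FBS medium). After lysis, PDGFRβ P-Y751 was detected by HTRF.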

Chain of Tb-labeled inactive PDGFRβ (P09619 33-1106): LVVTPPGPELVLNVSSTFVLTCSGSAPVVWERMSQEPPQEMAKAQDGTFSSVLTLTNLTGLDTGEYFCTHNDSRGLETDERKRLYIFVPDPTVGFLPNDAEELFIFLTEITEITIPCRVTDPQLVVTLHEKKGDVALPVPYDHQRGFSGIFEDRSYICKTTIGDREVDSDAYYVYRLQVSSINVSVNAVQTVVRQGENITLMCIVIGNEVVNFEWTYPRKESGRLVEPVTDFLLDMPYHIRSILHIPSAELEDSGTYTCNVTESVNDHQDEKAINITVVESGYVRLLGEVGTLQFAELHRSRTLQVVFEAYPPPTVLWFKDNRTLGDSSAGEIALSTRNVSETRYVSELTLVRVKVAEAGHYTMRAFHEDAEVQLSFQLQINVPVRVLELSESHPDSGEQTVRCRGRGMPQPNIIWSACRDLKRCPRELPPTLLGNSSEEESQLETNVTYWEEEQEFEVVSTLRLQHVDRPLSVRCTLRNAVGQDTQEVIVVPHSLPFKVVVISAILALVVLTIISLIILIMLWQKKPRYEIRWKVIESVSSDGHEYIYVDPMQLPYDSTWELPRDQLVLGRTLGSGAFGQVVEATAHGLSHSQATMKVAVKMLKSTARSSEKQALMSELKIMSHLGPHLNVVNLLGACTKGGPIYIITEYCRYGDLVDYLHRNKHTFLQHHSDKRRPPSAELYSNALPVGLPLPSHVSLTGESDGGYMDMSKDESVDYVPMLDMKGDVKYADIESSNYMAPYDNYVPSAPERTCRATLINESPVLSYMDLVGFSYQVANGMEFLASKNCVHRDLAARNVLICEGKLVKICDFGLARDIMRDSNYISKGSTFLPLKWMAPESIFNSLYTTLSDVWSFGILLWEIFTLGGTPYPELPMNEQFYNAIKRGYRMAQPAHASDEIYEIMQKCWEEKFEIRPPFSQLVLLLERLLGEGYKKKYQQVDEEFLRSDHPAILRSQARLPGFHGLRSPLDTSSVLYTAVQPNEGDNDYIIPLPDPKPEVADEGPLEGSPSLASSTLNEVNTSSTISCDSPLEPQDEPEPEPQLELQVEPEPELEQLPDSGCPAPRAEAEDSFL
Chain of PDGFRβ (Q05030 32-1097): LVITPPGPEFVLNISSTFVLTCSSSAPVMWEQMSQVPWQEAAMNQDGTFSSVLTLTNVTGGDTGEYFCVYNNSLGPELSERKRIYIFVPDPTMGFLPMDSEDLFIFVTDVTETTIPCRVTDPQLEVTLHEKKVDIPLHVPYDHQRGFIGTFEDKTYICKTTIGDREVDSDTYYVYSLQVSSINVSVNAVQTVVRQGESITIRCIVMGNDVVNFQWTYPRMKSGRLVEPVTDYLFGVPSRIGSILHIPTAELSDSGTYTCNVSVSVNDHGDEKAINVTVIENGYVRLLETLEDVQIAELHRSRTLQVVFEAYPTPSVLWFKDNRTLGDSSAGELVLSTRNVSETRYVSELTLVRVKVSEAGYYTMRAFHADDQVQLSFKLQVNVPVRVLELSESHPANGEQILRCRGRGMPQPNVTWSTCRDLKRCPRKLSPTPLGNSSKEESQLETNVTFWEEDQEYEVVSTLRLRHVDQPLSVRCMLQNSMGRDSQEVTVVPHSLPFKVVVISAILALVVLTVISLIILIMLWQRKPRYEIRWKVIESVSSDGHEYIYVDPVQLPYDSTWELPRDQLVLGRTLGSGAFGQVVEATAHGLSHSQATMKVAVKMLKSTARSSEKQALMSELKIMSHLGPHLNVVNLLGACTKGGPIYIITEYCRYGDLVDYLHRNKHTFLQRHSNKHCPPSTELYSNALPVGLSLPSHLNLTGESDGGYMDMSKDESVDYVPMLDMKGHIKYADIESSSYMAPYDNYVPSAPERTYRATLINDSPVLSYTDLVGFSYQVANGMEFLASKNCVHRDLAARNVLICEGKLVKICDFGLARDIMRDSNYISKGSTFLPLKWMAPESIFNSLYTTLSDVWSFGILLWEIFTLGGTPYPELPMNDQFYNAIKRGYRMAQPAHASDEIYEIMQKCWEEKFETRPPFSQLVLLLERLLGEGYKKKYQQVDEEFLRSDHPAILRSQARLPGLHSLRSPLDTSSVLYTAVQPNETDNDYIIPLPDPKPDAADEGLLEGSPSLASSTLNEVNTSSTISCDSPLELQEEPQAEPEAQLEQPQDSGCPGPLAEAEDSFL

SMILES: Cc1ncc(NC(=O)CN2CCc3cnn(C)c3C2)cc1NC(=O)c1cnn2cc(-c3cnn(C)c3)sc12 [Example 17, 2-(1-methyl-1H-pyrazol-4-yl)-N-(2-methyl-5-(2-(1-methyl-4,5-dihydro-1H-pyrazolo[3,4-c]pyridin-6 (7H)-yl)acetamido)pyridin-3-yl)pyrazolo[5,1-b]thiazole-7-carboxamide]
IC50 [1]: 6 nM
IC50 [2]: 69.5 nM

SMILES: Cc1ncc(NC(=O)CN2CCC(F)(F)CC2)cc1NC(=O)c1cnn2cc(-c3cnn(C)c3)sc12 [Example 14, N-(5-(2-(4,4-difluoropiperidin-1-yl)acetamido)-2-methylpyridin-3-yl)-2-(1-methyl-1H-pyrazol-4-yl)pyrazolo[5,1-b]thiazole-7-carboxamide]
IC50 [1]: 2.7 nM
IC50 [2]: 4.4 nM

SMILES: Cc1ncc(C(=O)NCCN2CCCC23CCC3)cc1NC(=O)c1cnn2cc(-c3c(C)nn(C)c3C)sc12 [Example 214, N-(5-((2-(5-azaspiro[3.4]octan-5-yl)ethyl)carbamoyl)-2-methylpyridin-3-yl)-2-(1,3,5-trimethyl-1H-pyrazol-4-yl)pyrazolo[5,1-b]thiazole-7-carboxamide]
IC50 [1]: 1.8 nM
IC50 [2]: 3.9 nM

SMILES: Cn1cc(-c2cn3ncc(C(=O)Nc4sc(C(=O)NCCN5CCCC56CCC6)cc4C#N)c3s2)cn1 [Example 206, N-(5-((2-(5-azaspiro[3.4]octan-5-yl)ethyl)carbamoyl)-3-cyanothiophen-2-yl)-2-(1-methyl-1H-pyrazol-4-yl)pyrazolo[5,1-b]thiazole-7-carboxamide]
IC50 [1]: > 3000 nM
IC50 [2]: > 3000 nM

SMILES: Cc1ncc(NC(=O)CN2CCN(C)CC2)cc1NC(=O)c1cnn2cc(-c3cnn(C)c3)sc12 [Example 232, 2-(1-methyl-1H-pyrazol-4-yl)-N-(2-methyl-5-(2-(4-methylpiperazin-1-yl)acetamido)pyridin-3-yl)pyrazolo[5,1-b]thiazole-7-carboxamide]
IC50 [1]: 751 nM
IC50 [2]: 1730 nM

SMILES: Cc1ncc(C(=O)NCCN2CCCC2)cc1NC(=O)c1cnn2cc(-c3cnn(C)c3)sc12 [Example 219, 2-(1-Methyl-1H-pyrazol-4-yl)-N-(2-methyl-5-((2-(pyrrolidin-1-yl)ethyl)carbamoyl)pyridin-3-yl)pyrazolo[5,1-b]thiazole-7-carboxamide]
IC50 [1]: 14 nM
IC50 [2]: 123 nM

SMILES: CCc1cc(C(=O)NCCN2CCCC23CCC3)sc1NC(=O)c1cnn2cc(-c3cnn(C)c3)sc12 [Example 205, N-(5-((2-(5-azaspiro[3.4]octan-5-yl)ethyl)carbamoyl)-3-ethylthiophen-2-yl)-2-(1-methyl-1H-pyrazol-4-yl)pyrazolo[5,1-b]thiazole-7-carboxamide]
IC50 [1]: 107 nM
IC50 [2]: 562 nM

IC50 [1]: 2.6 nM
IC50 [2]: 89.8 nM
SMILES: Cc1ncc(C(=O)NCCN2CC3CCC2C3)cc1NC(=O)c1cnn2cc(-c3cnn(C)c3C)sc12 (centres unmarked) [Example 210, N-(5-((2-(2-azabicyclo[2.2.1]heptan-2-yl)ethyl)carbamoyl)-2-methylpyridin-3-yl)-2-(1,5-dimethyl-1H-pyrazol-4-yl)pyrazolo[5,1-b]thiazole-7-carboxamide]

SMILES: Cc1cc(C(=O)NCCN2CCCC2(C)C)sc1NC(=O)c1cnn2cc(-c3ccn(C)n3)sc12 [Example 188, N-(5-((2-(2,2-dimethylpyrrolidin-1-yl)ethyl)carbamoyl)-3-methylthiophen-2-yl)-2-(1-methyl-1H-pyrazol-3-yl)pyrazolo[5,1-b]thiazole-7-carboxamide]
IC50 [1]: 683 nM
IC50 [2]: 347 nM

SMILES: COc1ncccc1-c1cn2ncc(C(=O)Nc3cc(C(=O)NCCN4CCCC4)cnc3C)c2s1 [Example 229, 2-(2-Methoxypyridin-3-yl)-N-(2-methyl-5-((2-(pyrrolidin-1-yl)ethyl)carbamoyl)pyridin-3-yl)pyrazolo[5,1-b]thiazole-7-carboxamide]
IC50 [1]: 1.6 nM
IC50 [2]: 15.5 nM

SMILES: Cc1ncc(NC(=O)OCCN2CC3CCC2C3)cc1NC(=O)c1cnn2cc(-c3cnn(C)c3)sc12 (centres unmarked) [Example 250, 2-(2-azabicyclo[2.2.1]heptan-2-yl)ethyl (6-methyl-5-(2-(1-methyl-1H-pyrazol-4-yl)pyrazolo[5,1-b]thiazole-7-carboxamido)pyridin-3-yl)carbamate]
IC50 [1]: 75.2 nM
IC50 [2]: 299 nM

SMILES: Cc1cc(C(=O)NCCN2CCCC2(C)C)sc1NC(=O)c1cnn2cc(-c3cncnc3)sc12 [Example 185, N-(5-((2-(2,2-dimethylpyrrolidin-1-yl)ethyl)carbamoyl)-3-methylthiophen-2-yl)-2-(pyrimidin-5-yl)pyrazolo[5,1-b]thiazole-7-carboxamide]
IC50 [1]: > 3000 nM
IC50 [2]: 42.6 nM

SMILES: Cc1ncc(C(=O)NCCN2CCCC2)cc1NC(=O)c1cnn2cc(-c3cnn(CCC(O)CO)c3)sc12 (centres unmarked) [Example 222, 2-(1-(3,4-Dihydroxybutyl)-1H-pyrazol-4-yl)-N-(2-methyl-5-((2-(pyrrolidin-1-yl)ethyl)carbamoyl)pyridin-3-yl)pyrazolo[5,1-b]thiazole-7-carboxamide]
IC50 [1]: 16.5 nM
IC50 [2]: 989 nM

SMILES: Cc1ncc(NC(=O)OCCN(C)C2CCCCC2)cc1NC(=O)c1cnn2cc(-c3cnn(C)c3)sc12 [Example 251, 2-(cyclohexyl(methyl)amino)ethyl (6-methyl-5-(2-(1-methyl-1H-pyrazol-4-yl)pyrazolo[5,1-b]thiazole-7-carboxamido)pyridin-3-yl)carbamate]
IC50 [1]: 33.6 nM
IC50 [2]: 28.4 nM

IC50 [1]: 7.5 nM
IC50 [2]: 181 nM
SMILES: Cc1ncc(C(=O)NC2CN(C(C)(C)C)C2)cc1NC(=O)c1cnn2cc(-c3cccc4c3cnn4C)sc12 [Example 238, N-(5-((1-(tert-butyl)azetidin-3-yl)carbamoyl)-2-methylpyridin-3-yl)-2-(1-methyl-1H-indazol-4-yl)pyrazolo[5,1-b]thiazole-7-carboxamide]

SMILES: Cc1cc(C(=O)NCCN2CCCC2(C)C)sc1NC(=O)c1cnn2cc(-c3ccncc3)sc12 [Example 187, N-(5-((2-(2,2-dimethylpyrrolidin-1-yl)ethyl)carbamoyl)-3-methylthiophen-2-yl)-2-(pyridin-4-yl)pyrazolo[5,1-b]thiazole-7-carboxamide]
IC50 [1]: 1190 nM
IC50 [2]: 1020 nM

SMILES: Cc1cc(C(=O)NCCN2CCC(C)(C)CC2)sc1NC(=O)c1cnn2cc(-c3cnn(C)c3)sc12 [Example 183, N-(5-((2-(4,4-dimethylpiperidin-1-yl)ethyl)carbamoyl)-3-methylthiophen-2-yl)-2-(1-methyl-1H-pyrazol-4-yl)pyrazolo[5,1-b]thiazole-7-carboxamide]
IC50 [1]: 652 nM
IC50 [2]: 178 nM

SMILES: Cc1cc(C(=O)NCCCN2CCCC2(C)C)sc1NC(=O)c1cnn2cc(-c3cnn(C)c3)sc12 [Example 201, N-(5-((3-(2,2-dimethylpyrrolidin-1-yl)propyl)carbamoyl)-3-methylthiophen-2-yl)-2-(1-methyl-1H-pyrazol-4-yl)pyrazolo[5,1-b]thiazole-7-carboxamide]
IC50 [1]: 2450 nM
IC50 [2]: 1440 nM

SMILES: Cc1cc(C(=O)NCCN2CCOCC23CC3)sc1NC(=O)c1cnn2cc(-c3cnn(C)c3)sc12 [Example 197, N-(5-((2-(7-oxa-4-azaspiro[2.5]octan-4-yl)ethyl)carbamoyl)-3-methylthiophen-2-yl)-2-(1-methyl-1H-pyrazol-4-yl)pyrazolo[5,1-b]thiazole-7-carboxamide]
IC50 [1]: 51 nM
IC50 [2]: 613 nM
